Laboratory results as given in ChEMBL document CHEMBL3885861, “Open TG-GATES”.

Organism: Rattus norvegicus
Assay: Open TG-GATES - Regimen: Daily Repeat
Assay type: toxicity, organism-based, Sprague-Dawley
Design: regimen Daily Repeat, gender Male, age 6 weeks
Details: in vivo, po, route gavage; for Bas / Eos / Fbg / Ht / MCHC / Mono / Plat / RBC / Ret / WBC / MCV: tissue Blood; for KIDNEY_L / KIDNEY_R / KIDNEY_TOTAL: tissue Kidney; for ALT / AST / CRE / DBIL / GLC / IP / K / LDH / PL / RALB / TBIL / TC / TG / TP / gamma-GTP: tissue Plasma
[1] = 0 mg/kg, 72 h, dose level Control, time 3 day
[2] = 0 mg/kg, […], dose level Control, time 7 day
[3] = 0 mg/kg, […], dose level Control, time 14 day
[4] = 0 mg/kg, […], dose level Control, time 28 day
[5] = 10 mg/kg, 72 h, dose level Low, time 3 day
[6] = 10 mg/kg, […], dose level Low, time 7 day
[7] = 10 mg/kg, […], dose level Low, time 14 day
[8] = 10 mg/kg, […], dose level Low, time 28 day

`CC(C)OC(=O)C(C)(C)Oc1ccc(C(=O)c2ccc(Cl)cc2)cc1` [FENOFIBRATE] gave a TERMINAL_BW [1] of 218.5 g, a Bas [1] of 0.2% and an Eos [1] of 1.2%. It also gave a Fbg [1] of 275 mg/dL, a Ht [1] of 39.9% and an MCHC [1] of 33%. It also gave a Mono [1] of 3.2%, a Plat [1] of 108.4 x10_4/uL and an RBC [1] of 625.4 x10_4/ul. The Ret [1] was 7.7%, the WBC [1] was 80.3 x10_2/uL and the KIDNEY_L [1] was 1 g. It also gave a KIDNEY_R [1] of 0.9 g, a KIDNEY_TOTAL [1] of 1.9 g and an ALT [1] of 44.4 IU/L. For the same molecule, the AST [1] was 69 IU/L, the CRE [1] was 0.2 mg/dL and the DBIL [1] was 0.014 mg/dL. It also gave a GLC [1] of 180.4 mg/dL, an IP [1] of 8.3 mg/dL and a K [1] of 4.3 meq/L. It also gave an LDH [1] of 75.2 IU/L, a PL [1] of 150.2 mg/dL and an RALB [1] of 2.6 g/dL. For the same molecule, the TBIL [1] was 0.042 mg/dL, the TC [1] was 76.8 mg/dL and the TG [1] was 86 mg/dL. It also gave a TP [1] of 5.6 g/dL, a gamma-GTP [1] of 1.2 IU/L and a TERMINAL_BW [2] of 254.4 g. It also gave a TERMINAL_BW [3] of 310.8 g, a TERMINAL_BW [4] of 390.8 g and a Bas [2] of 0%. The Eos [2] was 1%, the Fbg [2] was 310.4 mg/dL and the Ht [2] was 41.5%. The MCHC [2] was 32.7%, the Mono [2] was 2.8% and the Plat [2] was 113.6 x10_4/uL. It also gave an RBC [2] of 650 x10_4/ul, a Ret [2] of 6.1% and a WBC [2] of 94.9 x10_2/uL. The Bas [3] was 0%, the Eos [3] was 1% and the Fbg [3] was 309.8 mg/dL. For the same molecule, the Ht [3] was 43.2%, the MCHC [3] was 33.2% and the Mono [3] was 2.2%. The Plat [3] was 111 x10_4/uL, the RBC [3] was 692.6 x10_4/ul and the Ret [3] was 4.5%. It also gave a WBC [3] of 81.5 x10_2/uL, a Bas [4] of 0.4% and an Eos [4] of 1.2%. It also gave a Fbg [4] of 270.6 mg/dL, a Ht [4] of 45.9% and an MCHC [4] of 33.9%. It also gave an MCV [4] of 59.2 fL, a Mono [4] of 2.2% and a Plat [4] of 101.9 x10_4/uL. It also gave an RBC [4] of 774.4 x10_4/ul, a Ret [4] of 2.5% and a WBC [4] of 107.1 x10_2/uL. For the same molecule, the KIDNEY_L [2] was 1.1 g, the KIDNEY_R [2] was 1.1 g and the KIDNEY_TOTAL [2] was 2.1 g. It also gave a KIDNEY_L [3] of 1.2 g, a KIDNEY_R [3] of 1.2 g and a KIDNEY_TOTAL [3] of 2.4 g. It also gave a KIDNEY_L [4] of 1.3 g, a KIDNEY_R [4] of 1.3 g and a KIDNEY_TOTAL [4] of 2.5 g. For the same molecule, the ALT [2] was 47.8 IU/L, the AST [2] was 72.2 IU/L and the CRE [2] was 0.2 mg/dL. It also gave a DBIL [2] of 0.012 mg/dL, a GLC [2] of 187.8 mg/dL and an IP [2] of 7.9 mg/dL. It also gave a K [2] of 4.3 meq/L, an LDH [2] of 89.6 IU/L and a PL [2] of 147.8 mg/dL. The RALB [2] was 2.7 g/dL, the TBIL [2] was 0.036 mg/dL and the TC [2] was 72.2 mg/dL. The TG [2] was 122.6 mg/dL, the TP [2] was 5.8 g/dL and the gamma-GTP [2] was 1 IU/L. The ALT [3] was 40.8 IU/L, the AST [3] was 65.8 IU/L and the CRE [3] was 0.2 mg/dL. It also gave a DBIL [3] of 0.014 mg/dL, a GLC [3] of 188.2 mg/dL and an IP [3] of 7.5 mg/dL. The K [3] was 4.3 meq/L, the LDH [3] was 106.6 IU/L and the PL [3] was 144.8 mg/dL. For the same molecule, the RALB [3] was 2.7 g/dL, the TBIL [3] was 0.038 mg/dL and the TC [3] was 64.6 mg/dL. For the same molecule, the TG [3] was 188 mg/dL, the TP [3] was 5.9 g/dL and the gamma-GTP [3] was 1 IU/L. It also gave an ALT [4] of 40.2 IU/L, an AST [4] of 65.8 IU/L and a CRE [4] of 0.2 mg/dL. The DBIL [4] was 0.012 mg/dL, the GLC [4] was 186 mg/dL and the IP [4] was 7.1 mg/dL. It also gave a K [4] of 3.6 meq/L, an LDH [4] of 90 IU/L and a PL [4] of 142 mg/dL. The RALB [4] was 2.8 g/dL, the TBIL [4] was 0.042 mg/dL and the TC [4] was 71.4 mg/dL. For the same molecule, the TG [4] was 117.8 mg/dL, the TP [4] was 6.3 g/dL and the gamma-GTP [4] was 1.2 IU/L. The TERMINAL_BW [5] was 221.1 g, the Bas [5] was 0.4% and the Eos [5] was 1.4%. For the same molecule, the Fbg [5] was 269.8 mg/dL, the Ht [5] was 39.2% and the MCHC [5] was 33.1%. It also gave a Mono [5] of 3%, a Plat [5] of 113.1 x10_4/uL and an RBC [5] of 620.2 x10_4/ul. The Ret [5] was 7.2%, the WBC [5] was 80.5 x10_2/uL and the KIDNEY_L [5] was 1 g. It also gave a KIDNEY_R [5] of 1 g, a KIDNEY_TOTAL [5] of 2 g and an ALT [5] of 49 IU/L. It also gave an AST [5] of 76.6 IU/L, a CRE [5] of 0.2 mg/dL and a DBIL [5] of 0.012 mg/dL. For the same molecule, the GLC [5] was 182.8 mg/dL, the IP [5] was 8.3 mg/dL and the K [5] was 4.1 meq/L. The LDH [5] was 74 IU/L, the PL [5] was 148.8 mg/dL and the RALB [5] was 2.6 g/dL. The TBIL [5] was 0.04 mg/dL, the TC [5] was 80.4 mg/dL and the TG [5] was 52.4 mg/dL. The TP [5] was 5.6 g/dL, the gamma-GTP [5] was 1.2 IU/L and the TERMINAL_BW [6] was 253.9 g. It also gave a TERMINAL_BW [7] of 314.5 g, a TERMINAL_BW [8] of 385.8 g and a Bas [6] of 0.2%. For the same molecule, the Eos [6] was 1%, the Fbg [6] was 280.8 mg/dL and the Ht [6] was 41%. For the same molecule, the MCHC [6] was 33.1%, the Mono [6] was 2.2% and the Plat [6] was 136.5 x10_4/uL. The RBC [6] was 646.8 x10_4/ul, the Ret [6] was 6.2% and the WBC [6] was 99.8 x10_2/uL. It also gave a Bas [7] of 0%, an Eos [7] of 1% and a Fbg [7] of 309.6 mg/dL. For the same molecule, the Ht [7] was 42.6%, the MCHC [7] was 33.5% and the Mono [7] was 3%. The Plat [7] was 123.9 x10_4/uL, the RBC [7] was 687.6 x10_4/ul and the Ret [7] was 4.5%. The WBC [7] was 88.4 x10_2/uL, the Bas [8] was 0% and the Eos [8] was 1.2%. For the same molecule, the Fbg [8] was 267 mg/dL, the Ht [8] was 44.6% and the MCHC [8] was 33.7%. It also gave an MCV [8] of 57.9 fL, a Mono [8] of 2.4% and a Plat [8] of 105.5 x10_4/uL. For the same molecule, the RBC [8] was 770.4 x10_4/ul, the Ret [8] was 2.1% and the WBC [8] was 88.4 x10_2/uL. It also gave a KIDNEY_L [6] of 1.1 g, a KIDNEY_R [6] of 1.1 g and a KIDNEY_TOTAL [6] of 2.1 g. It also gave a KIDNEY_L [7] of 1.3 g, a KIDNEY_R [7] of 1.3 g and a KIDNEY_TOTAL [7] of 2.6 g. For the same molecule, the KIDNEY_L [8] was 1.5 g, the KIDNEY_R [8] was 1.5 g and the KIDNEY_TOTAL [8] was 2.9 g. It also gave an ALT [6] of 45.2 IU/L, an AST [6] of 72.8 IU/L and a CRE [6] of 0.2 mg/dL. The DBIL [6] was 0.01 mg/dL, the GLC [6] was 187.2 mg/dL and the IP [6] was 8.1 mg/dL. The K [6] was 4.4 meq/L, the LDH [6] was 101.2 IU/L and the PL [6] was 131.8 mg/dL. The RALB [6] was 2.7 g/dL, the TBIL [6] was 0.026 mg/dL and the TC [6] was 65.6 mg/dL. It also gave a TG [6] of 74.2 mg/dL, a TP [6] of 5.8 g/dL and a gamma-GTP [6] of 1 IU/L. The ALT [7] was 39.8 IU/L, the AST [7] was 64 IU/L and the CRE [7] was 0.2 mg/dL. It also gave a DBIL [7] of 0.014 mg/dL, a GLC [7] of 193.2 mg/dL and an IP [7] of 7.7 mg/dL. It also gave a K [7] of 4.3 meq/L, an LDH [7] of 84 IU/L and a PL [7] of 132.4 mg/dL. For the same molecule, the RALB [7] was 2.7 g/dL, the TBIL [7] was 0.03 mg/dL and the TC [7] was 57.2 mg/dL. It also gave a TG [7] of 124.8 mg/dL, a TP [7] of 6 g/dL and a gamma-GTP [7] of 0.8 IU/L. The ALT [8] was 40.2 IU/L, the AST [8] was 63.2 IU/L and the CRE [8] was 0.2 mg/dL. For the same molecule, the DBIL [8] was 0.01 mg/dL, the GLC [8] was 187.6 mg/dL and the IP [8] was 7.2 mg/dL. The K [8] was 4.2 meq/L, the LDH [8] was 101.6 IU/L and the PL [8] was 136.2 mg/dL. The RALB [8] was 2.8 g/dL, the TBIL [8] was 0.028 mg/dL and the TC [8] was 64.6 mg/dL. For the same molecule, the TG [8] was 100 mg/dL, the TP [8] was 6.4 g/dL and the gamma-GTP [8] was 1 IU/L.
